In assay [1] the test system is Staphylococcus aureus. As to the kind of experiment: Antibiofilm activity against Methicillin-resistant Staphylococcus aureus ATCC BAA-4A assessed as inhibition of biofilm formation. It counts as functional, organism-based.
In assay [2] the test system is Staphylococcus aureus. Description: Antimicrobial activity against Staphylococcus aureus ATCC 25923 assessed as reduction in bacterial growth at 0.25 uM incubated for 16 hrs by broth dilution method relative to control. Format: functional. Also noted: scale not given: the % may be the effect or the level left. (Dilution methods test growth across graded concentrations, often in twofold steps.)

Assay [3] has as its system Staphylococcus aureus. As to the kind of experiment: Antimicrobial activity against Staphylococcus aureus ATCC 25923 assessed as reduction in bacterial growth at 0.5 uM incubated for 16 hrs by broth dilution method relative to control. Format: functional. Also noted: scale not given: the % may be the effect or the level left.
The test system of assay [4] is Staphylococcus aureus. Description: Antimicrobial activity against Staphylococcus aureus ATCC 25923 assessed as reduction in bacterial growth at 0.12 uM incubated for 16 hrs by broth dilution method relative to control. Format: functional. Set-up: scale not given: the % may be the effect or the level left.
For assay [5], the target named is T1, Transcriptional regulator MvfR (Pseudomonas aeruginosa PA14, UniProt A0A072ZLE6).
T1 sequence (A0A072ZLE6 whole entry): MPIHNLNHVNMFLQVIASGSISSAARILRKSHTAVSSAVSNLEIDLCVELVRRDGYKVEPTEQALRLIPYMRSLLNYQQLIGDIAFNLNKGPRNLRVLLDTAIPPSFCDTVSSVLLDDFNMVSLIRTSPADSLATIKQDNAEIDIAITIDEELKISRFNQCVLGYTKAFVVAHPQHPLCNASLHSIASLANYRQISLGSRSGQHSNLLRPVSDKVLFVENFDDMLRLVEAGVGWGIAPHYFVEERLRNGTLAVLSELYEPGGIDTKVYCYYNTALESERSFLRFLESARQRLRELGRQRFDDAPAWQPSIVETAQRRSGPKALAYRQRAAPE
Description: Antagonist activity at PqsR in wild-type Pseudomonas aeruginosa PAO1-L.

Assay [6] concerns Pseudomonas aeruginosa. Description: Antibiofilm activity against Pseudomonas aeruginosa PA14 assessed as inhibition of biofilm formation incubated for 24 hrs by microscopic analysis. The note with it: PA14, 24 h. It counts as functional, organism-based.
The test system of assay [7] is Enterococcus faecalis. As to the kind of experiment: Antibacterial activity against Enterococcus faecalis ATCC 29212 assessed as bacterial growth inhibition incubated for 15 to 18 hrs by Muller hinton broth based dilution assay. It counts as functional. The note with it: time 15-18 hrs.
The test system of assay [8] is Enterococcus faecalis. Description: Antibiofilm activity against Enterococcus faecalis ATCC 29212 assessed as biofilm eradication incubated for 20 mins by crystal violet staining based analysis. It counts as functional.
In assay [9] the test system is Pseudomonas aeruginosa. Description: Antibiofilm activity against Pseudomonas aeruginosa PAO1 assessed as inhibition of biofilm formation incubated at 100 uM incubated for 24 hrs by crystal violet staining based analysis relative to control. Format: functional. Set-up: scale not given: the % may be the effect or the level left.
Assay [10] relates to Staphylococcus aureus. Description: Antibiofilm activity against methicillin-resistant Staphylococcus aureus assessed as inhibition of biofilm formation incubated for overnight by crystal violet staining based microtiter plate assay. It counts as functional, organism-based.
Assay [11] deals with Staphylococcus aureus. Description: Antibacterial activity against Staphylococcus aureus ATCC 25923 assessed as reduction in bacterial growth incubated for 18 to 24 hrs by broth microdilution method. It counts as functional. To be noted: time 18-24 hrs.
In assay [12] the test system is Staphylococcus epidermidis. Description: Antibacterial activity against Staphylococcus epidermidis RP62A assessed as reduction in bacterial growth incubated for 18 to 20 hrs by broth microdilution assay. Format: functional. The note with it: time 18-20 hrs.
The test system of assay [13] is Staphylococcus aureus. As to the kind of experiment: Antibacterial activity against Staphylococcus aureus ATCC 6538 assessed as reduction in bacterial growth incubated for 18 to 24 hrs by broth microdilution method. The note with it: time 18-24 hrs. It counts as functional.
A short description of assay [14]: Inhibition of Staphylococcus aureus sortase A by FRET assay.
The test system of assay [15] is Staphylococcus aureus. As to the kind of experiment: Antibacterial activity against Staphylococcus aureus ATCC 29213 assessed as reduction in bacterial growth incubated for 18 to 24 hrs by broth microdilution method. It counts as functional. The note with it: time 18-24 hrs.
The subject of assay [16] is Pseudomonas aeruginosa. Description: Antibiofilm activity against Pseudomonas aeruginosa PAO1 assessed as inhibition of biofilm formation at 100 uM relative to control. Format: functional. Also noted: scale not given: the % may be the effect or the level left.
Assay [17] can be described thus: Inhibition of quorum sensing system in Pseudomonas aeruginosa PAO1 assessed as inhibition of pyocyanin production at 256 ug/ml incubated for 24 hrs by absorbance based assay.
In assay [18] the test system is Pseudomonas aeruginosa. As to the kind of experiment: Antibiofilm activity against Pseudomonas aeruginosa ATCC 27853 assessed as inhibition of biofilm formation at 0.5 times of MIC by crystal violet staining based analysis relative to control. It counts as functional. Also noted: scale not given: the % may be the effect or the level left.
Assay [19] is described as follows: Inhibition of quorum sensing system in Pseudomonas aeruginosa PA14 assessed as inhibition of pyocyanin production.
For assay [20], the target named is T1, Transcriptional regulator MvfR. As to the kind of experiment: Inhibition of PqsR-mediated quorum sensing system in Pseudomonas aeruginosa PAO1 assessed as reduction in pyocyanin production.
The test system of assay [21] is Pseudomonas aeruginosa. Description: Antibiofilm activity against Pseudomonas aeruginosa PAO1 assessed as inhibition of biofilm formation at 64 microg/ml incubated for 24 hrs by BacTiter Glo reagent based luminescence analysis relative to control. It counts as functional. Also noted: scale not given: the % may be the effect or the level left. To be noted: dose 64 µg/ml.

Assay [22] has as its system Staphylococcus aureus. As to the kind of experiment: Antibiofilm activity against Staphylococcus aureus ATCC 33862 assessed as reduction in biofilm formation at 20 uM incubated for 24 hrs by absorbance based assay relative to control. Format: functional. Set-up: scale not given: the % may be the effect or the level left.
The test system of assay [23] is Pseudomonas aeruginosa. As to the kind of experiment: Antibiofilm activity against Pseudomonas aeruginosa ATCC 10145 assessed as reduction in biofilm formation at 20 uM incubated for 24 hrs by absorbance based assay relative to control. Also noted: scale not given: the % may be the effect or the level left. Format: functional.
The nature of assay [24]: Inhibition of Quorum sensing system Las in Pseudomonas aeruginosa PAO1 assessed as reduction in interaction with LasR regulator.
Assay [25] concerns Pseudomonas aeruginosa. Description: Antibiofilm activity against Pseudomonas aeruginosa PAO1 assessed as inhibition of biofilm formation incubated at 15 uM relative to control. Format: functional. Also noted: scale not given: the % may be the effect or the level left.

Experimental findings from ChEMBL document CHEMBL5512599, “Synthetic non-toxic anti-biofilm agents as a strategy in combating bacterial resistance” (Eur J Med Chem, 2023) are described below.

For orientation: IC50 means the concentration that gives 50% inhibition. What is called MIC is the lowest concentration found to suppress growth. As a reminder, the inhibition is the change of the read-out against control, counted positive when it falls.

Values after ≈ are worked out from the molar mass of the structure shown.

Take `CCCCCc1ccc(C(=O)NCCn2cc(CCCCCc3[nH]cnc3-c3ccoc3)nn2)cc1`: the IC50 in the assay on Staphylococcus aureus [1] is 3.7 µM.

Consider `Cc1ccc(C(=O)c2nn(-c3nc(-c4ccccc4)c(-c4sc(-n5nc(C(=O)c6ccc(C(F)(F)F)cc6)c(C#N)c5N)nc4-c4ccccc4)s3)c(N)c2C#N)cc1`, for which the Activity with Staphylococcus aureus [2] was 20%; in the assay on Staphylococcus aureus [3], 35%; in the assay with Staphylococcus aureus [4], 15%.

As for `CCCCCCCCCc1nc2cc(F)ccc2c(=O)n1N`, the IC50 in [5] worked out at 1200 nM.

Regarding `CCCCCCCNC(=O)CCc1c[nH]c(N)n1`, in the assay on Pseudomonas aeruginosa [6], the IC50 was determined as 43 µM.

In the case of `NC(=O)c1cc(-c2csc(-c3ccc(-c4cnc(-c5ccccc5)s4)cc3)n2)ccc1O`, in the assay with Enterococcus faecalis [7], the MIC worked out at 0.25 µg/mL (≈ 0.549 µM). The MBEC with Enterococcus faecalis [8] worked out at 0.008 µg/mL.

As for `O=C(CCCNc1ccc(F)cc1)NC1CCOC1=O` (stereo not drawn), the Activity with Pseudomonas aeruginosa [9] was 70%.

For `CCCCOc1ccc(/C=C(\C)Cn2cc(CCCCCc3c[nH]c(N)n3)nn2)cc1`, the IC50 with Staphylococcus aureus [10] is less than 10 µM.

Consider `CCCCCCCCCc1nc2cc(Cl)ccc2c(=O)n1N`, for which the IC50 in assay [5] was 1200 nM.

Take `CC(=O)/C(=N\Nc1cccc(Cl)c1)C(=O)O`: the MIC (with Staphylococcus aureus [11]; in assay [12]; in the assay with Staphylococcus aureus [13]; in the assay on Staphylococcus aureus [15]) was more than 270 µM throughout. Moreover, the midpoint of inhibition in [14], the IC50, lay at 87 µM.

On to `Clc1ccc(-c2csc(-c3ccc(-c4cnc(-c5ccccc5)s4)cc3)n2)cc1`, for which the MIC with Enterococcus faecalis [7] came to 0.032 µg/mL (≈ 0.0742 µM). In the assay with Enterococcus faecalis [8], the MBEC is 0.016 µg/mL.

As for `O=C(c1ccc(Cl)cc1)c1ccnc(C(F)F)c1`, the Activity in the assay with Pseudomonas aeruginosa [16] is recorded as 71%. Moreover, the IC50 in assay [17] came to 35 µM.

Turning to `NCCCCCCCCCCCCNc1ccnc2cc(C(F)(F)F)ccc12`, the Activity in the assay with Pseudomonas aeruginosa [18] came out at 75%. Moreover, the IC50 in assay [19] turned out to be 50 µM.

For `Clc1ccc2c(NCCCCCCCCNCc3cc4ccccc4s3)ccnc2c1`, the IC50 in assay [20] came out at 30 µM.

With `O=C(CCCCCOc1cccc(C(F)(F)F)c1)NNC(=O)Cn1c(=O)oc2ccccc21`, the Activity with Pseudomonas aeruginosa [21] is listed as 45%. Moreover, the inhibition in assay [17] (dose 256.0 µg/ml) turned out to be 63%.

Consider `CCCCCCCCCCCC(=O)Nc1cc(=O)c2ccccc2[nH]1`, for which the Activity entry in the assay with Staphylococcus aureus [22] and in the assay on Pseudomonas aeruginosa [23] was “>=50%” each time.

For the compound `CCCCCCCCCCCc1c[nH]c(N)n1`, the IC50 in the assay on Pseudomonas aeruginosa [6] was 19 µM.

On to `CCCCCCCCCC(=O)NC1CCCC1` [N-CYCLOPENTYLDECANAMIDE], for which, in assay [24], the IC50 is 80 µM.

Regarding `CCCCCCCCCCCCCCCC(=O)Nc1c(N)[nH]c2ccccc2c1=O`, the Activity entry in the assay on Staphylococcus aureus [22] and in the assay with Pseudomonas aeruginosa [23] was “>=50%” throughout.

Regarding `COc1ccc(-c2csc(-c3ccc(-c4cnc(-c5ccccc5)s4)cc3)n2)cc1`, in the assay with Enterococcus faecalis [7], the MIC was 0.062 µg/mL (≈ 0.145 µM). The MBEC with Enterococcus faecalis [8] stood at 0.004 µg/mL.

As to `O=[N+]([O-])c1ccc(-c2csc(-c3ccc(-c4cnc(-c5ccccc5)s4)cc3)n2)cc1`, the MIC with Enterococcus faecalis [7] came out at 0.062 µg/mL (≈ 0.14 µM). Moreover, the MBEC in the assay on Enterococcus faecalis [8] was 0.002 µg/mL.

With `NCCCCCCCCCCCCNc1ccnc2cc(Cl)ccc12`, in the assay on Pseudomonas aeruginosa [18], the Activity came to 85%. In addition, the IC50 in assay [19] stood at 12 µM.

Turning to `O=C(CCCNc1ccc(Cl)cc1)NC1CCOC1=O` (stereo not drawn), the Activity in the assay with Pseudomonas aeruginosa [9] is 70%.

`COc1cccc(NC(=O)CC(=O)CSC(=S)N[C@@H]2CCOC2=O)c1`: the Activity in the assay on Pseudomonas aeruginosa [25] is given as 35%.

For `CCCCCCCCCCCCCC(=O)Nc1c(N)[nH]c2ccccc2c1=O`, the Activity entry in the assay with Staphylococcus aureus [22] and in the assay with Pseudomonas aeruginosa [23] was “>=50%” throughout.

In the case of `c1ccc(-c2csc(-c3ccc(-c4cnc(-c5ccccc5)s4)cc3)n2)cc1`, the MIC with Enterococcus faecalis [7] is 0.125 µg/mL (≈ 0.315 µM). The MBEC in the assay with Enterococcus faecalis [8] was found to be 0.002 µg/mL.
